Laboratory results from patent US9250241B2, “Use of micropatterned soft substrate for measuring of cell traction forces” (COMMISSARIAT A L'ENERGIE ATOMIQUE ET AUX ENERGIES …, priority 2011, dated 2016).

Assays:
MCF10A cells = experiment: Cell traction force measurement by crossbow micropattern bar length on micropatterned PAA; assay type: cell-based, human
Description: Non-tumorigenic human epithelial cells from the mammary gland, MCF10A, were plated on the micropatterned PAA substrates. Cells specifically attached to the fibronectin coated micropatterns since non-exposed PAA regions prevented protein adsorption (FIG. 2D). The effect of micropattern geometry on cell traction forces orientation was tested on various shapes: disc, pacman and crossbow (FIG. 3A). Spread cells exerted traction forces on the micropattern that could be measured by looking at the displacement of fluorescent beads embedded in the PAA gel (see FIG. 3B and Material and Methods). Particle Image Velocimetry followed by individual particle tracking were used to measure bead displacements (Marganski et al (2003) Methods Enzymol 361:197-211; Sabass et al (2008) Biophys J 94(1):207-220). Force fields were calculated from the bead displacement fields by using the Fourier transform traction cytometry (Sabass et al, supra; Butler et al (2002) Am J Physiol Cell Physiol 282(3):C595-605). Force fields exerted by individual cells were overlaid and averaged to quantify their reproducibility (FIG. 3C,D). On homogeneously coated regions cells developed forces that were randomly distributed from one cell to the other. In cells constrained on disc shaped micropatterns, forces were still randomly oriented but their magnitudes were lowered due to reduced cell spreading. In cells constrained on pacman shaped micropatterns, forces distribution was geometrically biased due to enhanced cell contraction above non adhesive regions. […] Importantly, most of the traction forces were reproducibly oriented upward, along the straight adhesive bar on the extremity of which the inventors measured the highest pressure (FIG. 3D). […]
When actin cables have an unpredictable spatial distribution, a given deformation cannot be directly assigned to a defined force magnitude. […] When the deformation was measured along the shortest, and therefore most contracted, cell axis, the correlation was improved (FIG. 4C). […]

[1] = tested on: MCF10A expressing inducible ErbB2 receptor; experiment: Cell traction force measurement by crossbow micropattern bar length on micropatterned PAA, ErbB2 inducible cells; assay type: cell-based, human; settings: 1 μM, 48 hr before traction force measurement; FIG. 5C
Source text: When actin cables have an unpredictable spatial distribution, a given deformation cannot be directly assigned to a defined force magnitude. Indeed, forces applied on adjacent adhesion sites both affect local deformations, due to the continuous nature of the substrate. Each deformation results from local and distant forces. So the calculation of the force field is highly dependent on the spatial distribution of force application sites and the relationship between deformation and forces varies from one cell to the other. The inventors hypothesized that in cells developing a reproducible architecture and a controlled pattern of force application, a given local deformation could be assigned to a defined value of the contractile force. […] When the deformation was measured along the shortest, and therefore most contracted, cell axis, the correlation was improved (FIG. 4C). […] On the crossbow, a single image acquisition was sufficient to measure the bar length and read the corresponding average cell traction force using the calibration curve (FIG. 4F). […]
The culture of MCF10A cells and the generation of ΔCK2β cell line was described previously (Deshiere et al (2008) Mol Cell Biochem 316(1-2):107-113). […] Substrate relaxation was assessed by detaching cells with trypsin. […]

Molecule: Cc1ccc2c(c1)C(=O)C1(O)CCN(c3ccccc3)C1=N2 (stereo not shown) [Blebbistatin]
- force magnitude decrease over time (MCF10A cells; 50 μM, single cell, FIG. 5B): follows a single exponential decay
- force inhibition profile in response to increasing dose (MCF10A cells; increasing drug concentrations successively applied to 6 cells, crossbow bar length, FIG. 5A): matched the myosin II inhibition profile

Molecule: TGFb1: known to induce epithelial to mesenchymal transition (R&D systems)
- level of cell contraction versus WT cells (crossbow shortening) (MCF10A cells; 2 ng/mL for 2 days before plating, FIG. 5C): significantly higher level of cell contraction

Molecule: CCC(C)(C)C(=O)C(=O)N1CCCC[C@H]1C(=O)O[C@H](CCc1ccc(OC)c(OC)c1)c1cccc(OCC(=O)NCCNC(=O)COc2cccc([C@@H](CCc3ccc(OC)c(OC)c3)OC(=O)[C@@H]3CCCCN3C(=O)C(=O)C(C)(C)CC)c2)c1 [AP1510]
- level of cell contraction versus WT cells [1]: no significant changes in the level of cell contraction
